Data from patent US4849207A, “Porphyrin derivatives” (Nihon Medi-Physics Co., Ltd., priority 1985, dated 1989).

Columns and labels:
[1] = system: cancer cells of the pancreas; assay: Laser irradiation to an extracted organ (excited fluorescent spectrum); assay type: in vivo, golden hamsters; conditions: golden hamster, 5 mg i.v., after 24 hours
Protocol: Laser irradiation to an extracted organ (excited fluorescent spectrum):
To each of golden hamsters (five animals being grouped) transplaned with nitrosoamine-induced cancer cells of the pancreas, DTPA-10EG PPB-Me (5 mg) diluted with 0.1M citrate buffer (1 ml) was administered intravenously 14 to 21 days after the transplantation, and cancer cells and other organs were extracted. To each of the organs as extracted, N2 -pulsed laser (N2 337 nm, 2 ns 400-1000 nm) was irradiated, and excited fluorescent spectrum was measured after 24 hours. Taking the peak wavelength of NADH at 470 nm as the standard (i.e. 1), the wavelength at 600 to 900 nm was calculated. The results are shown in Table 1, from which it is understood that a porphyrin-related substance has a remarkably selective affinity to cancer cells.

[2] = system: inflammation (croton oil induced); assay: Distribution in inflammation-induced rats, inflammation to tissue; assay type: in vivo, SD rats; conditions: SD rat, 72 hour post-injection; mean and s.d. for 3 animals
Protocol: SD rats of about 200 grams in bodyweight received croton oil (0.1 ml) at the right hind leg subcutaneously to induce inflammation. […] The radioactivity level ratio between the inflamation and each tissue was determined.

[3] = system: tumor; conditions: hamster, in vivo, 4320 min
Protocol: (§1) Scintigraphy was obtained 72 and 96 hours after the administration by the use of a gamma-camera equipped with a medium energy high resolution type collimator.

[4] = system: inflammation (turpentine oil induced); conditions: hamster, in vivo, 4320 min
Protocol: as §1

## 2,4-Bis[1-(In-diethylenetriamine-tetraacetic acid-acetyloxyethane)oxyethyl] Ga-deuteroporphyrin [In--bisDTPA--EG Ga--DP]
[1]
  excited fluorescence at 600 to 900 nm relative to NADH peak at 470 nm (=1): Cancer: 0.40
  excited fluorescence at 600 to 900 nm relative to NADH peak at 470 nm (=1): Kidney: 0.10
  excited fluorescence at 600 to 900 nm relative to NADH peak at 470 nm (=1): Liver: 0.18
  excited fluorescence at 600 to 900 nm relative to NADH peak at 470 nm (=1): Serum: 0.03

## 2,4-Bis[1-(In-diethylenetriamine-tetraacetic acid-acetyloxyethane)oxyethyl] In-deuteroporphyrin [In--bisDTPA--EG In--DP]
[1]
  excited fluorescence at 600 to 900 nm relative to NADH peak at 470 nm (=1): Cancer: 0.00
  excited fluorescence at 600 to 900 nm relative to NADH peak at 470 nm (=1): Kidney: 0.05
  excited fluorescence at 600 to 900 nm relative to NADH peak at 470 nm (=1): Liver: 0.25
  excited fluorescence at 600 to 900 nm relative to NADH peak at 470 nm (=1): Lung: 0.05
  excited fluorescence at 600 to 900 nm relative to NADH peak at 470 nm (=1): Serum: 0.05

## 2-[1-(In-Diethylenetriamine-tetraacetic acid-acetyloxyethane)oxyethyl]-4-[1-(2-hydroxyethyl)oxyethyl] Ga-deuteroporphyrin [In--monoDTPA--EG Ga--DP]
[1]
  excited fluorescence at 600 to 900 nm relative to NADH peak at 470 nm (=1): Cancer: 0.50
  excited fluorescence at 600 to 900 nm relative to NADH peak at 470 nm (=1): Kidney: 0.05
  excited fluorescence at 600 to 900 nm relative to NADH peak at 470 nm (=1): Liver: 0.03
  excited fluorescence at 600 to 900 nm relative to NADH peak at 470 nm (=1): Lung: 0.14
  excited fluorescence at 600 to 900 nm relative to NADH peak at 470 nm (=1): Serum: 0.02

## 2-[1-(In-Diethylenetriamine-tetraacetic acid-acetyloxyethane)oxyethyl]-4-[1-(2-hydroxyethyl)oxyethyl] In-deuteroporphyrin [In--monoDTPA--EG In--DP]
[1]
  excited fluorescence at 600 to 900 nm relative to NADH peak at 470 nm (=1): Cancer: 0.30
  excited fluorescence at 600 to 900 nm relative to NADH peak at 470 nm (=1): Kidney: 0.00
  excited fluorescence at 600 to 900 nm relative to NADH peak at 470 nm (=1): Liver: 0.07
  excited fluorescence at 600 to 900 nm relative to NADH peak at 470 nm (=1): Lung: 0.09
  excited fluorescence at 600 to 900 nm relative to NADH peak at 470 nm (=1): Serum: 0.24

## 2-[1-(In-Diethylenetriamine-tetraacetic acid-acetyloxyethane)oxyethyl]-4-[1-(2-hydroxyethyl)oxyethyl] deuteroporphyrin dimethyl ester [In--DTPA--EG DP--Me]
[1]
  excited fluorescence at 600 to 900 nm relative to NADH peak at 470 nm (=1): Cancer: 0.83
  excited fluorescence at 600 to 900 nm relative to NADH peak at 470 nm (=1): Kidney: 0.15
  excited fluorescence at 600 to 900 nm relative to NADH peak at 470 nm (=1): Liver: 0.36
  excited fluorescence at 600 to 900 nm relative to NADH peak at 470 nm (=1): Lung: 0.09
  excited fluorescence at 600 to 900 nm relative to NADH peak at 470 nm (=1): Serum: 0.71

## C=Cc1c(C)c2cc3nc(c4c5[nH]c(cc6nc(cc1[nH]2)C(C)=C6CC)c(C)c5C(=O)C4C(=O)OC)C(CCC(=O)OCCOC(=O)CN(CCN(CCN(CC(=O)O)CC(=O)O)CC(=O)O)CC(=O)O)C3C (stereo not shown) [DTPA--7EG PPB, Ethylene glycol mono-diethylenetriaminetetraacetic acid-acetate mono-7c-pheophorbate]
[1]
  excited fluorescence at 600 to 900 nm relative to NADH peak at 470 nm (=1): Cancer: 0.53
  excited fluorescence at 600 to 900 nm relative to NADH peak at 470 nm (=1): Kidney: 0.32
  excited fluorescence at 600 to 900 nm relative to NADH peak at 470 nm (=1): Liver: 0.33
  excited fluorescence at 600 to 900 nm relative to NADH peak at 470 nm (=1): Lung: 0.30
  excited fluorescence at 600 to 900 nm relative to NADH peak at 470 nm (=1): Serum: 0.31

## C=Cc1c(C)c2cc3nc(c4c5[nH]c(cc6nc(cc1[nH]2)C(C)=C6CC)c(C)c5C(=O)C4)C(CCC(=O)OCCOC(=O)CN(CCN(CCN(CC(=O)O)CC(=O)O)CC(=O)O)CC(=O)O)C3C (stereo not shown) [DTPA--7EG pyroPPB, Ethylene glycol mono-diethylenetriaminetetraacetic acid-acetate mono-7c-pyropheophorbate]
[1]
  excited fluorescence at 600 to 900 nm relative to NADH peak at 470 nm (=1): Cancer: 2.20
  excited fluorescence at 600 to 900 nm relative to NADH peak at 470 nm (=1): Kidney: 0.25
  excited fluorescence at 600 to 900 nm relative to NADH peak at 470 nm (=1): Liver: 0.87
  excited fluorescence at 600 to 900 nm relative to NADH peak at 470 nm (=1): Lung: 1.23
  excited fluorescence at 600 to 900 nm relative to NADH peak at 470 nm (=1): Serum: 0.39

## C=Cc1c(C)c2cc3nc(c4c5[nH]c(cc6nc(cc1[nH]2)C(C)=C6CC)c(C)c5C(=O)C4C(=O)OCCOC(=O)CN(CCN(CCN(CC(=O)O)CC(=O)O)CC(=O)O)CC(=O)O)C(CCC(=O)O)C3C (stereo not shown) [DTPA--10EG PPB, Ethylene glycol mono-diethylenetriamine-tetraacetic acid-acetate mono-10b-pheophorbate]
[1]
  excited fluorescence at 600 to 900 nm relative to NADH peak at 470 nm (=1): Cancer: 1.20
  excited fluorescence at 600 to 900 nm relative to NADH peak at 470 nm (=1): Kidney: 0.43
  excited fluorescence at 600 to 900 nm relative to NADH peak at 470 nm (=1): Liver: 0.77
  excited fluorescence at 600 to 900 nm relative to NADH peak at 470 nm (=1): Lung: 0.45
  excited fluorescence at 600 to 900 nm relative to NADH peak at 470 nm (=1): Serum: 0.52

## C=Cc1c(C)c2cc3nc(c4c5[nH]c(cc6nc(cc1[nH]2)C(C)=C6CC)c(C)c5C(=O)C4C(=O)OCCOC(=O)CN(CCN(CCN(CC(=O)O)CC(=O)O)CC(=O)O)CC(=O)O)C(CCC(=O)OC)C3C (stereo not shown) [DTPA--10EG PPB--Me, Ethylene glycol monodiethylenetriaminetetraacetic acid-acetate mono-10b-methylpheophorbate]
[1]
  excited fluorescence at 600 to 900 nm relative to NADH peak at 470 nm (=1): Cancer: 2.73
  excited fluorescence at 600 to 900 nm relative to NADH peak at 470 nm (=1): Kidney: 0.37
  excited fluorescence at 600 to 900 nm relative to NADH peak at 470 nm (=1): Liver: 0.69
  excited fluorescence at 600 to 900 nm relative to NADH peak at 470 nm (=1): Lung: 0.47
  excited fluorescence at 600 to 900 nm relative to NADH peak at 470 nm (=1): Serum: 0.53

## O=C([O-])CC(O)(CC(=O)[O-])C(=O)[O-].[67Ga+3] [Gallium (^67 Ga) citrate, gallium (^67 Ga) citrate]
[2]
  Inflammation to tissue concentration ratio: Blood: 21.61 ± 6.47
  Inflammation to tissue concentration ratio: Heart: 7.49 ± 3.37
  Inflammation to tissue concentration ratio: Kidney: 5.04 ± 6.35
  Inflammation to tissue concentration ratio: Liver: 0.69 ± 0.17
  Inflammation to tissue concentration ratio: Lung: 5.41 ± 0.71
  Inflammation to tissue concentration ratio: Muscle: 12.81 ± 4.61
  Inflammation to tissue concentration ratio: Spleen: 0.64 ± 0.11
[3]
  Tumor to tissue concentration ratio: Blood: 9.89
  Tumor to tissue concentration ratio: Heart: 1.73
  Tumor to tissue concentration ratio: Kidney: 0.20
  Tumor to tissue concentration ratio: Liver: 0.18
  Tumor to tissue concentration ratio: Lung: 1.26
  Tumor to tissue concentration ratio: Muscle: 14.20
  Tumor to tissue concentration ratio: Spleen: 0.39
[4]
  Inflammation to tissue concentration ratio: Blood: 17.55
  Inflammation to tissue concentration ratio: Heart: 3.10
  Inflammation to tissue concentration ratio: Kidney: 0.36
  Inflammation to tissue concentration ratio: Liver: 0.33
  Inflammation to tissue concentration ratio: Lung: 2.23
  Inflammation to tissue concentration ratio: Muscle: 25.15
  Inflammation to tissue concentration ratio: Spleen: 0.68

## CCC1=C(C)c2cc3[nH]c(cc4nc(c5c6[nH]c(cc1n2)c(C)c6C(=O)C5C(=O)OCCOC(=O)C1C(=O)c2c(C)c5cc6nc(cc7[nH]c(cc8nc(c1c2[nH]5)C(CCC(=O)O)C8C)c(C)c7C(C)I)C(C)=C6CC)C(CCC(=O)O)C4C)c(C)c3C(C)I (stereo not shown) [I2 PPB Dimer, Bis[2-desethenyl-2-(1-iodoethyl)pheophobide]ethylene glycol diester]
[1]
  excited fluorescence at 600 to 900 nm relative to NADH peak at 470 nm (=1): Cancer: 0.82
  excited fluorescence at 600 to 900 nm relative to NADH peak at 470 nm (=1): Kidney: 0.07
  excited fluorescence at 600 to 900 nm relative to NADH peak at 470 nm (=1): Liver: 0.31
  excited fluorescence at 600 to 900 nm relative to NADH peak at 470 nm (=1): Lung: 0.20
  excited fluorescence at 600 to 900 nm relative to NADH peak at 470 nm (=1): Serum: 1.58
